From the NIST ThermoML archive (doi:10.1021/je300683r)
± gives the expanded uncertainty stated by the source.

How the values were obtained:
[1] = refractive index (Na D-line) (dimensionless); details: 293.15 K; 101.33 kPa; Liquid; Standard Abbe refractometry
[2] = 293.15 K; 101.33 kPa; Liquid; Vibrating tube method

Structure (SMILES) | refractive index [1] | mass density [2] [kg/m3]
CC(C)CO [2-methyl-1-propanol] | 1.3955 ± 0.0008 | 802 ± 1
CC(C)CCO [3-methylbutan-1-ol] | 1.413 ± 0.0008 | 810.2 ± 1.1
CCO [ethanol] | 1.3616 ± 0.0012 | 790 ± 1
O [water] | 1.3328 ± 0.0007 | 998.4 ± 1
